Patent US20200093737A1, “PHARMACEUTICAL DOSAGE FORMS CONTAINING TASK-1 AND TASK-3 CHANNEL INHIBITORS, AND THE USE OF SAME IN BREATHING DISORDER THERAPY” (priority 2016, published 2020)
Marks after values point to notes of the source that are not given here.

Test system: upper airways
Test: Animal model of obstructive sleep apnoea in the pig (collapsibility of the upper airways under negative pressure)
Format: in vivo, German Landrace pigs
Source text: The effects of the formulations according to the invention of the inhibitors of TASK-1 and/or TASK-3 channels on the activation threshold of the genioglossus muscle by negative pressure and the collapsibility of the upper airways were investigated in a pig model for obstructive sleep apnoea. Using negative pressure, it is possible to induce collapse and thus obstruction of the upper airways in anaesthetized, spontaneously breathing pigs [Wirth et al., Sleep 36, 699-708 (2013)]. German Landrace pigs were used for the model. Since the nasal axis is in an almost vertical position in humans in a horizontal sleeping position, the pigs in the experiments were fixed in a sitting position (70 degrees), wherein the nose pointed upwards. After nasal administration, the formulation therefore flowed downwards over all regions of the upper airways. The pigs were anaesthetized and tracheotomized. One cannula each was inserted into the rostral and the caudal part of the trachea. Using a T connector, the rostral cannula was connected on the one hand to a device generating negative pressure and on the other hand to the caudal cannula. Using a T connector, the caudal cannula was connected to the rostral cannula and to a tube which allowed spontaneous breathing circumventing the upper airways. By appropriate closing and opening of the tubes it was thus possible for the pig to change from normal nasal breathing to breathing via the caudal cannula during the time when the upper airways were isolated and were connected to the device for generating negative pressure. The muscle activity of the Musculus genioglossus was recorded by electromyogram (EMG). At certain points in time, the collapsibility of the upper airways was tested by having the pig breathe via the caudal cannula and applying negative pressures of −50, −100 and −150 mbar (corresponding to −50, −100 and −150 cm water column (cm H2O)) to the upper airways. This caused the upper airways to collapse, which manifested itself in an interruption of the airflow and a pressure drop in the tube system. This test was conducted prior to administration of the test substance and at certain intervals after administration of the test substance. An appropriately effective test substance could prevent this collapse of the airways in the inspiratory phase. After changeover from nasal breathing to breathing via the caudal cannula, it was not possible to measure any EMG activity of the Musculus genioglossus in the anaesthetized pig. As a further test, the negative pressure at which EMG activity restarted was then determined. This threshold value was, if a test substance was effective, shifted to more positive values. The test was likewise conducted prior to the administration of the test substance and at certain intervals after the administration of the test substance. The test substance was administered by the nasal route. The results shown in the tables which follow were conducted with the compounds listed in Table 1 as Example 1, Example 3 and Example 4. Unless stated otherwise, the data were measured at a negative pressure of −100 mbar (corresponding to −100 cm water column (cm H2O)) on the upper airways. The active ingredients listed in Table 1 as Example 1, Example 3 and Example 4 were dissolved in the various formulations listed in Table 2 below and administered in an amount of 0 μg, 3 μg, 10 μg, 30 μg or 100 μg per pig. The active ingredient formulation or the pure vehicle was each administered with a pipette at a volume of 400 μl in each nostril. The duration of action in this pig model is defined as the time [min] in which a collapse of the upper airways was not observed in any animal, as a mean value of the specified number of animals. A duration of action specified as “>” X min signifies that the experiment was terminated at X min and up to this point a collapse of the upper airways was still not observed in any animal.

O=C(C1CCCC1)N1CCN(Cc2c(-c3ccc(Br)cc3)nc3ccccn23)CC1 [Example 1, (4-{[2-(4-bromophenyl)imidazo[1,2-a]pyridin-3-yl]methyl}piperazin-1-yl)(cyclopentyl)methanone]
Duration of action [min], mean value (Formulation 1 (no glycerol), 10 μg per pig nasal, -50 mbar): 150 min
Duration of action [min], mean value (Formulation 1 (no glycerol), 10 μg per pig nasal, -100 mbar): 120 min
Duration of action [min], mean value (Formulation 3 (glycerol 2.5% w/v), 10 μg per pig nasal, -50 mbar): >270 min
Duration of action [min], mean value (Formulation 3 (glycerol 2.5% w/v), 10 μg per pig nasal, -100 mbar): 240 min

COc1cccc(C(=O)N2CCN(Cc3c(-c4ccc(Cl)cc4)nc4ccccn34)CC2)n1 [Example 3, (4-{[2-(4-chlorophenyl)imidazo[1,2-a]pyridin-3-yl]methyl}piperazin-1-yl)(6-methoxypyridin-2-yl)methanone]
Duration of action [min], mean value (Formulation 1 (no glycerol), 30 μg per pig nasal, -100 mbar): 180* min
Duration of action [min], mean value (Formulation 1 (phosphate buffer pH 7/polysorbate 80, no glycerol), 3 μg per pig nasal, -100 mbar): 150 min
Duration of action [min], mean value (Formulation 2 (5% w/v glycerol 85%, 4.25 absolute), 3 μg per pig nasal, -100 mbar): 210 min
Duration of action [min], mean value (Formulation 3 (2.5% w/v glycerol 85%, 2.125 absolute), 3 μg per pig nasal, -100 mbar): 240 min
Duration of action [min], mean value (Formulation 3 (2.5% w/v glycerol 85%, 2.125 absolute), 30 μg per pig nasal, -100 mbar): 390 min
Duration of action [min], mean value (Formulation 4 (1% w/v glycerol 85%, 0.85 absolute), 3 μg per pig nasal, -100 mbar): 150 min
Duration of action [min], mean value (Formulation 5 (2.5% w/v glycerol 85% + 20% w/v PEG400), 3 μg per pig nasal, -100 mbar): 240 min
Duration of action [min], mean value (Formulation 6 (20% w/v propylene glycol, no glycerol), 30 μg per pig nasal, -100 mbar): 180 min
Duration of action [min], mean value (Formulation 7 (1.25% w/v Na-CMC, no glycerol), 3 μg per pig nasal, -100 mbar): 120 min

O=C(c1ccccc1F)N1CCN(Cc2c(-c3ccc(Br)cc3)nc3ccccn23)CC1 [Example 4, (4-{[2-(4-bromophenyl)imidazo[1,2-a]pyridin-3-yl]methyl}piperazin-1-yl)(2-fluorophenyl)methanone]
Duration of action [min], mean value (Formulation 1 (no glycerol), 100 μg per pig nasal, -50 mbar): 180 min
Duration of action [min], mean value (Formulation 1 (no glycerol), 100 μg per pig nasal, -100 mbar): 180 min
Duration of action [min], mean value (Formulation 3 (glycerol 2.5% w/v), 100 μg per pig nasal, -50 mbar): >300 min
Duration of action [min], mean value (Formulation 3 (glycerol 2.5% w/v), 100 μg per pig nasal, -100 mbar): 270 min
